# Reference: US5898069A, “Phosphate assay” (Medical Research Council, priority 1993, dated 1999)
# Like-named read-outs stand apart in the source and are kept apart here.
# Assays:
# Assay type in all cases: binding, E. coli
# MDCC-PBP = molecular target: T1, MDCC-PBP (Escherichia coli, UniProt P0AG82, A222C)
# T1 construct: A197 is located at position 197 numbering from the N-terminus of the mature PBP; made in house; host or cells: E. coli strain ANCC75, plasmid pSN5182/N, periplasm
# Protocol: The Pi dependent fluorescence change was measured for a variety of conditions at a single concentration of Pi (Table 2).
# The solutions contained 2 μM MDCCPBP (except for [b] 10 μM and [c]
# The fluorescence change was measured at 465 nm with excitation at
# [a] The solution was preincubated with the Pi mop.
# CPM-PBP = molecular target: T2, CPM-PBP (Escherichia coli, UniProt P0AG82, A222C)
# T2 construct: A197 is located at position 197 numbering from the N-terminus of the mature PBP; made in house; host or cells: E. coli strain ANCC75, plasmid pSN5182/N, periplasm
# T2 sequence (P0AG82 26-346 A222C): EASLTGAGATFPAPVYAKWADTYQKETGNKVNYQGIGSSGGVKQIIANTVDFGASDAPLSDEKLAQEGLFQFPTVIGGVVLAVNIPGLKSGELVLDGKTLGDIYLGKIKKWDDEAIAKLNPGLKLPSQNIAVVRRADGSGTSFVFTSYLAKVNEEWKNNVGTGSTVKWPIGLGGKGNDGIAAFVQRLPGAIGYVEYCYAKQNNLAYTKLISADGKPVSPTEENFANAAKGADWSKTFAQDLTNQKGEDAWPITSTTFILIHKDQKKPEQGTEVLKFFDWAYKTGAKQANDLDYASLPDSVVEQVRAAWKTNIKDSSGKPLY
# Protocol: Analysis of the effects of Pi analogues and solution composition was performed as for MDCC-PBP.
# PBP mutant D292C = molecular target: T3, PBP mutant D292C (Escherichia coli, UniProt P0AG82, D317C)
# T3 construct: from the Nterminus of the mature protein; made in house; host or cells: E. coli strain ANCC75, plasmid pSN5182/N, periplasm
# T3 sequence (P0AG82 26-346 D317C): as the sequence (P0AG82 26-346 A222C) above, with C197A, D292C counted along it
# From the text: (e) Using the Pi mop, the fluorescence change was 65%.
# [1] = addition 100 μM, preincubated with the Pi mop, 2 μM MDCC-PBP, 20 mM PIPES pH 7.0
# [2] = addition 100 μM, 6 μM CPM-PBP, 10 mM Tris.HCl pH 8.0
# [3] = addition 1 mM, 6 μM CPM-PBP, 10 mM Tris.HCl pH 8.0
# T1 sequence (P0AG82 26-346 A222C): as the sequence (P0AG82 26-346 A222C) above
compound,measurement,setting,value
O=P(O)(O)OC[C@H]1OC(O)[C@H](O)[C@@H](O)[C@@H]1O (stereo partly shown) [Glucose-6-phosphate],% fluorescence increase,MDCC-PBP; [1],3%
same,% fluorescence increase,CPM-PBP; [2],4%
"O=C1C=CC(=O)N1c1ccc(Nc2ccc3cc(S(=O)(=O)O)ccc3c2)cc1 [MIANS, 2[4(1-maleimidyl)anilino]naphthalene6-sulfonic acid]",fluorescence change using the Pi mop,PBP mutant D292C,65%
O=P(O)(O)OP(=O)(O)O [Pyrophosphate],% fluorescence increase,MDCC-PBP; pH 7,6%
same,% fluorescence increase,CPM-PBP; pH 8,5%
"CC(OP(=O)(O)OP(=O)(O)OP(=O)(O)OC[C@H]1O[C@@H](n2cnc3c(N)ncnc32)[C@H](O)[C@@H]1O)c1ccccc1[N+](=O)[O-] (stereo partly shown) [NPE-caged ATP, P^31-(2-nitrophenyl)ethyl ATP]",% fluorescence increase,"MDCC-PBP; addition 5 mM, preincubated with the Pi mop, 10 μM MDCC-PBP, 20 mM PIPES pH 7.0",0%
Nc1nc2c(ncn2[C@@H]2O[C@H](COP(=O)(O)OP(=O)(O)O)[C@@H](O)[C@H]2O)c(=O)[nH]1 [GDP],% fluorescence increase,MDCC-PBP; [1],3%
same,% fluorescence increase,CPM-PBP; [2],5%
Nc1ncnc2c1ncn2[C@@H]1O[C@H](COP(=O)(O)OP(=O)(O)O)[C@@H](O)[C@H]1O [ADP],% fluorescence increase,MDCC-PBP; [1],3%
same,% fluorescence increase,CPM-PBP; [2],4%
O=S(=O)([O-])[O-].[Na+].[Na+] [Sodium sulphate],% fluorescence increase,"MDCC-PBP; addition 1 mM, 2 μM MDCC-PBP, 20 mM PIPES pH 7.0",3%
same,% fluorescence increase,CPM-PBP; [3],0%
Nc1ncnc2c1ncn2[C@@H]1O[C@H](COP(=O)(O)OP(=O)(O)OP(=O)(O)O)[C@@H](O)[C@H]1O [ATP],% fluorescence increase,"MDCC-PBP; addition 100 μM, preincubated with the Pi mop, 10 μM MDCC-PBP, 20 mM PIPES pH 7.0",2%
same,% fluorescence increase,"MDCC-PBP; addition 1 mM, preincubated with the Pi mop, 10 μM MDCC-PBP, 20 mM PIPES pH 7.0",11%
same,% fluorescence increase,CPM-PBP; [2],5%
same,% fluorescence increase,CPM-PBP; [3],13%
Sodium vanadate,% fluorescence increase,"MDCC-PBP; addition 100 μM, 2 μM MDCC-PBP, 20 mM PIPES pH 7.0",35%
same,% fluorescence increase,CPM-PBP; [2],-2%
same,% fluorescence increase,"CPM-PBP; addition 1.1 mM, 6 μM CPM-PBP, 10 mM Tris.HCl pH 8.0",-11%
